Test results from patent publication US20250188030A1, “Biphenyl and Phenylpyridine Compounds” (Pfizer Inc., priority 2023, published 2025).
Entries after “also recorded” stand apart in the source; their conditions may differ. Where two headings read alike, the source gives them in different places.

Tests used:
MM.1S cells = test: MM1.S 10 Day Proliferation Assay (CellTiter-Glo); assay type: cell-based, Human; details: Homo sapiens, MM1.S, 240 h
Procedure, shortened: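 MM.1S cells, 500/well in ultra-low-attachment plates, were pre-incubated 16 h, then exposed to a 10-point 1:3 dilution series (top 10 μM final, 0.1% DMSO) for 10 days at 37 °C, with compound-containing medium refreshed at day 5. Viability was read by CellTiter-Glo luminescence; IC50 came from four-parameter fit.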

KAT2A = KAT2A (Homo sapiens (Human), UniProt Q92830); test: KAT2A acetyltransferase biochemical assay (RapidFire mass spectrometry, AcCoA to CoA)
KAT2A, sequence (Q92830 whole entry): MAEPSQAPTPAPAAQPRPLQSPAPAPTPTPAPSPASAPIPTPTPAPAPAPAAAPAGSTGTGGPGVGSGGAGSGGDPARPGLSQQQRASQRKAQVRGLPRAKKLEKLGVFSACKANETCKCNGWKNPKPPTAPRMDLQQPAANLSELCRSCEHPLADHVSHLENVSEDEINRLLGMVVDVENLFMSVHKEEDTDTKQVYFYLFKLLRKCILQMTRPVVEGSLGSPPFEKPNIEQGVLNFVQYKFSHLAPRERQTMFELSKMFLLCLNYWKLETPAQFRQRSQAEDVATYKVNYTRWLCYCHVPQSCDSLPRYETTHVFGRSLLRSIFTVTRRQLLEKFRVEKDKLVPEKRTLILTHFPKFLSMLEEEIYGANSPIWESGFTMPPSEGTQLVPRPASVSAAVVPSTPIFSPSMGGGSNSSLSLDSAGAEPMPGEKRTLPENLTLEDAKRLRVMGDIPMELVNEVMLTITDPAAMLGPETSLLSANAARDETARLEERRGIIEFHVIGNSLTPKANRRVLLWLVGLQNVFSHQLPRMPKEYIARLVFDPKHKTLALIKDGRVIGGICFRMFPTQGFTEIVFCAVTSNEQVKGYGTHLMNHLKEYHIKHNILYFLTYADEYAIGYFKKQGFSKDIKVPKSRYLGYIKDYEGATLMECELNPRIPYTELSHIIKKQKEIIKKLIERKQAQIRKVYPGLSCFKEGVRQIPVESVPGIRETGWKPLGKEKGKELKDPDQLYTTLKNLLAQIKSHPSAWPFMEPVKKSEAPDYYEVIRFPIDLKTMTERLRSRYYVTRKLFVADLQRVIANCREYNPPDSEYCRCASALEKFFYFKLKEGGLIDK

KAT2B = KAT2B (Homo sapiens (Human), UniProt Q92831); test: KAT2B acetyltransferase biochemical assay (RapidFire mass spectrometry, AcCoA to CoA)
KAT2B, sequence (Q92831 2-832): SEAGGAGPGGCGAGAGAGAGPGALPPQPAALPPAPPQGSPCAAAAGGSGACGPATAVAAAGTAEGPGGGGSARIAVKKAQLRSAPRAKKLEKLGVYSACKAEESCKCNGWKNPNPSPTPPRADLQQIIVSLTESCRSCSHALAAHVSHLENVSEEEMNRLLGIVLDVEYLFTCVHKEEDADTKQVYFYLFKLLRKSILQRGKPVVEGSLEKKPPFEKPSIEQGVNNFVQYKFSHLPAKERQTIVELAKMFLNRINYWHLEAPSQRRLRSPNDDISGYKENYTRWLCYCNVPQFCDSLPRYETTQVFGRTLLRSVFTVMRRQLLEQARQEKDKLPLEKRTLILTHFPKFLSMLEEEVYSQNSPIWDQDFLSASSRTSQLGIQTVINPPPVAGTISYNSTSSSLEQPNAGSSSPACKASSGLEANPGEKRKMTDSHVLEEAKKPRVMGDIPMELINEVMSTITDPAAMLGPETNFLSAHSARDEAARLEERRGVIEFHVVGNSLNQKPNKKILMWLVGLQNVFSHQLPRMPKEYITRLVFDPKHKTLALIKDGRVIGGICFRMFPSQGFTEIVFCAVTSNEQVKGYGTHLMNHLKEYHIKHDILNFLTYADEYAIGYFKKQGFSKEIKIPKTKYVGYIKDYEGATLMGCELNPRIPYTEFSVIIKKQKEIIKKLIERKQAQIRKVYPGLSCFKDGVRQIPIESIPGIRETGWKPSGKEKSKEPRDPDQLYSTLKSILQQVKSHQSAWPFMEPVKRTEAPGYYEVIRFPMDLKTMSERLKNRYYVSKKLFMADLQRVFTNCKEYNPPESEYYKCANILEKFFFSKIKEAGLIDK

H3K9AC (HT1080 cells) = test: H3K9AC Sandwich ELISA Assay in HT1080 cells (KAT2A primary cell-based screening assay); set-up: species or system Human
Procedure, shortened: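 HT1080 fibrosarcoma cells seeded 16 h, then treated 24 h at 37 °C with 10-point 1:3 compound dilutions (top 10 µM final, 0.1% DMSO). Acid lysates neutralized with butyrate/PMSF; H3K9ac measured by total-H3-capture sandwich ELISA with luminescent HRP readout, IC50 by four-parameter fit.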

[1] = Metabolite profile in hepatocytes, recombinant human UGT enzymes, and dog plasma and urine; assay type: in vitro ADME; details: hepatocytes (mouse, dog, human), plasma and urine from dogs
Source text: The metabolite profile of 2-(2′-cyclobutyl-3′-fluoro-6-{[(1R,3R)-3-{[(7S)-7-fluoro-5-azaspiro[3.4]octane-7-carbonyl]amino}cyclopentyl]oxy}[1, 1′-biphenyl]-3-yl)-2-methylpropanoic acid (Example A1) assessed in hepatocytes (mouse, dog, human), recombinant human UGT enzymes, and plasma and urine from dogs.
General methods/reviews of obtaining metabolite profile and identifying metabolites of a compound are described in: DAVLIE, 0., et al., “Assessment of Three Human in Vitro Systems in the Generation of Major Human Excretory and Circulating Metabolites,” Chemical Research in Toxicology, 2009, 22(2):357-368; KING, R., “Chapter Three—Biotransformations in Drug Metabolism.” Drug Metabolism Handbook: Concepts and Applications in Cancer Research, edited by Ala F. Nassar et al., Wiley, 2022, 17-38; WU, Y., et al., “Metabolite Identification in Preclinical and Clinical Phase of Drug Development,” Current Drug Metabolism, 2021, 22(11):838-857; GODZIEN, J., et al., “Chapter Fifteen—Metabolite Annotation and Identification.” Comprehensive Analytical Chemistry, Elsevier, 2018, 415-445.

[2] = read-out: KAT2A Ki at 1 μM AcCoA, 5 μM H3 1-21 peptide, 0.5 nM KAT2A, 90-minute reaction
[3] = read-out: KAT2B Ki at 1 μM AcCoA, 1 μM AcCoA, 5 μM H3 1-21 peptide, 0.5 nM KAT2B, 90-minute reaction
[4] = Homo sapiens, HT-1080, H3K9AC sandwich ELISA
[5] = KAT2A Ki at 1 μM AcCoA, 5 μM H3 1-21 peptide, 0.5 nM KAT2A, 90-minute reaction

| SMILES | IC50 (MM.1S cells) [nM] | Ki (KAT2A; [2]) [nM] | Ki (KAT2B; [3]) [nM] | IC50 (H3K9AC (HT1080 cells); [4]) [nM] | Ki (KAT2A; [5]) [nM] | Ki (KAT2B) [nM] | IC50 (H3K9AC (HT1080 cells); H3K9AC sandwich ELISA) [nM] | additional metabolites observed [1] | most significant metabolite observed [1] |
| --- | --- | --- | --- | --- | --- | --- | --- | --- | --- |
| CCc1c(F)cccc1-c1cc(C(C)(C)C(=O)NS(C)(=O)=O)ccc1O[C@@H]1CC[C@@H](NC(=O)[C@@]2(F)CNC3(CCCC3)C2)C1 (single isomer, unassigned) [Example C27] | 12.8 | 0.16 | 0.53 | 2.62 | – | – | – | – | – |
| CCc1c(F)cccc1-c1cc(C(C)(C)C(=O)NS(=O)(=O)C(C)C)ccc1O[C@@H]1CC[C@@H](NC(=O)[C@@]2(F)CNC3(CCCC3)C2)C1 (single isomer, unassigned) [Example C29] | 7.11 | 0.14 | 0.47 | 1.86 | – | – | – | – | – |
| CC(C)S(=O)(=O)NC(=O)Cc1ccc(O[C@@H]2CC[C@@H](NC(=O)[C@]3(F)CNC4(CCC4)C3)C2)c(-c2cccc(F)c2C2CCC2)c1 (single isomer, unassigned) [Example C40] | 3.5 | – | – | – | 0.02 | 0.07 | 1.5 | – | – |
| Cn1cc(-c2ccc(O[C@@H]3CC[C@@H](NC(=O)[C@]4(F)CNC5(CCC5)C4)C3)c(-c3cccc(F)c3C3CCC3)c2)c(C(C)(C)C(=O)O)n1 (single isomer, unassigned) [Example J7] | 20.6 | 0.26 | 0.46 | – | – | – | 3.88 | – | – |
| Cn1cc(-c2ccc(O[C@@H]3CC[C@@H](NC(=O)[C@]4(F)CNC5(CCC5)C4)C3)c(-c3cccc(F)c3C3CCC3)c2)c(C(=O)O)n1 (single isomer, unassigned) [Example J10] | 52 | 0.27 | 0.49 | – | – | – | 19.5 | – | – |
| CN1CC(C)(C)C[C@H]1C(=O)N[C@H]1C[C@H](Oc2ccc(C(=O)O)cc2-c2cccc(F)c2C2CCC2)C[C@H]1O (single isomer, unassigned) [Example K3, 2′-cyclobutyl-3′-fluoro-6-({(1ξ,3ξ,4ξ)-3-hydroxy-4-[(1,4,4-trimethyl-L-prolyl)amino]cyclopentyl}oxy)[1,1′-biphenyl]-3-carboxylic acid] | 15.9 | 0.19 | 0.56 | 4.29 | – | – | – | – | – |
| CC(C)(C(=O)O)c1ccc(O[C@@H]2CC[C@@H](NC(=O)[C@@]3(F)CNC4(CCC4)C3)C2)c(-c2cccc(F)c2C2CCC2)c1 [Example A1, 2-(2′-cyclobutyl-3′-fluoro-6-{[(1R,3R)-3-{[(7S)-7-fluoro-5-azaspiro[3.4]octane-7-carbonyl]amino}cyclopentyl]oxy}[1,1′-biphenyl]-3-yl)-2-methylpropanoic acid] | 45.3 | 0.47 | 2.65 | 8.16 | – | – | – | CYP-mediated oxidation on the cyclobutane ring, the gem-dimethyl group and/or one or both of the biaryl rings; also recorded: direct glucose conjugate from UGT enzymes or chemical reaction | glucuronidation of the carboxylic acid group (Acyl glucuronide) |
| CC(C)(C(=O)NS(=O)(=O)N1CCC1)c1ccc(O[C@@H]2CC[C@@H](NC(=O)[C@@]3(F)CNC4(CCC4)C3)C2)c(-c2cccc(F)c2C2CCC2)c1 [Example C3, (7S)-N-{(1R,3R)-3-[(5-{1-[(azetidin-1-ylsulfonyl)amino]-2-methyl-1-oxopropan-2-yl}-2′-cyclobutyl-3′-fluorobiphenyl-2-yl)oxy]cyclopentyl}-7-fluoro-5-azaspiro[3.4]octane-7-carboxamide] | 6.22 | 0.05 | 0.06 | 3.84 | – | – | – | – | – |
| CCc1c(F)cccc1-c1cc(C(C)(C)C(=O)NS(=O)(=O)C(C)C)ccc1O[C@@H]1CC[C@@H](NC(=O)[C@@]2(F)CNC3(CCC3)C2)C1 [Example C18, (7S)-N-[(1R,3R)-3-({2′-ethyl-3′-fluoro-5-[2-methyl-1-oxo-1-(propane-2-sulfonamido)propan-2-yl][1,1′-biphenyl]-2-yl}oxy)cyclopentyl]-7-fluoro-5-azaspiro[3.4]octane-7-carboxamide] | 30.6 | 0.1 | 0.31 | 2.34 | – | – | – | – | – |
| CN1CC(C)(C)C[C@H]1C(=O)N[C@@H]1CC[C@@H](Oc2ccc(CC(=O)O)cc2-c2cccc(F)c2C2CCC2)C1 [Example D10, [2′-cyclobutyl-3′-fluoro-6-({(1R,3R)-3-[(1,4,4-trimethyl-L-prolyl)amino]cyclopentyl}oxy)[1,1′-biphenyl]-3-yl]acetic acid] | 193 | 9.48 | 22.2 | 39.2 | – | – | – | – | – |
| CN1CC(C)(C)C[C@H]1C(=O)N[C@@H]1CC[C@@H](Oc2ccc(C(C)(C)C(=O)NS(C)(=O)=O)cc2-c2cccc(F)c2C2CCC2)C1 [Example E1, N-{(1R,3R)-3-[(2′-cyclobutyl-3′-fluoro-5-{1-[(methanesulfonyl)amino]-2-methyl-1-oxopropan-2-yl}[1, 1′-biphenyl]-2-yl)oxy]cyclopentyl}-1,4,4-trimethyl-L-prolinamide] | 31.5 | 0.15 | 0.38 | 5.06 | – | – | – | – | – |
| CN1CC(C)(C)C[C@H]1C(=O)N[C@@H]1CC[C@@H](Oc2ccc(CC(=O)NS(=O)(=O)N(C)C)cc2-c2cccc(F)c2C2CCC2)C1 [Example E3, N-{(1R,3R)-3-[(2′-cyclobutyl-5-{2-[(dimethylsulfamoyl)amino]-2-oxoethyl}-3′-fluoro[1,1′-biphenyl]-2-yl)oxy]cyclopentyl}-1,4,4-trimethyl-L-prolinamide] | 3.82 | 0.03 | 0.02 | 0.84 | – | – | – | – | – |
| CN1CC(C)(C)C[C@H]1C(=O)N[C@@H]1CC[C@@H](Oc2ccc(C(C)(C)C(=O)NS(=O)(=O)N(C)C)cc2-c2cccc(F)c2C2CCC2)C1 [Example E4, N-{(1R,3R)-3-[(2′-cyclobutyl-5-{1-[(dimethylsulfamoyl)amino]-2-methyl-1-oxopropan-2-yl}-3′-fluoro[1,1′-biphenyl]-2-yl)oxy]cyclopentyl}-1,4,4-trimethyl-L-prolinamide] | 15.9 | 0.08 | 0.21 | 8.38 | – | – | – | – | – |
| CN1CC(C)(C)C[C@H]1C(=O)N[C@@H]1CC[C@@H](Oc2ccc(-c3cn(C)nc3C(=O)O)cc2-c2cccc(F)c2C2CCC2)C1 [Example J1, 4-[2′-cyclobutyl-3′-fIuoro-6-({(1R,3R)-3-[(1,4,4-trimethyl -L-prolyl)amino]cyclopentyl}oxy)[1,1′-biphenyl]-3-yl]-1-methyl-1H-pyrazole-3-carboxylic acid] | 8.43 | – | – | 14.9 | 0.41 | 0.74 | – | – | – |
| CN1CC(C)(C)C[C@H]1C(=O)N[C@H]1C[C@H](Oc2ccc(CC(=O)O)cc2-c2cccc(F)c2C2CCC2)C[C@H]1O [Example K4, [2′-cyclobutyl-3′-fluoro-6-({(1S,3R,4S)-3-hydroxy-4-[(1,4,4-trimethyl-L-prolyl)amino]cyclopentyl}oxy)[1,1′-biphenyl]-3-yl]acetic acid] | 45.6 | 0.7 | 0.94 | 4.56 | – | – | – | – | – |
